Assays:
[1] = tested on: YRG2-ΔF strain; assay: Colony formation on SC-HIS-LEU-TRP media, YRG2-ΔF strain; type: cell-based, yeast; conditions: 1.5 mM in SC-HIS-LEU-TRP media; 30° C.; three days
Method: (§1) When the YRG2-ΔF strain was streaked onto solid media (SC-HIS, -LEU, -TRP) and incubated at 21° C., colonies formed within three days (Table 2). The YRG2-ΔF colonies were approximately the same size as colonies produced by YRG2-WT grown under the same conditions. However, when YRG2-ΔF was streaked onto SC-HIS-LEU-TRP solid media and incubated at 30° C., only small colonies were apparent after three days (substantially smaller in size than YRG2-WT colonies grown under the same growth conditions). Colonies were not apparent (or were detectable only as extremely small micro-colonies) when YRG2-ΔF was streaked onto solid SC-HIS, -LEU, -TRP media and incubated at 34° C. The ΔF508 mutation thus conferred a temperature-sensitive HIS+ phenotype to the yeast strain containing pADPN-ΔF and pBDPN-ΔF. To further enhance the temperature-sensitive HIS− colony phenotype of the YRG2-ΔF strain relative to the YRG2-WT strain, it is advantageous to incorporate 3-amino-1,2,4-triazole at a concentration of 1.5 mM into the SC-HIS-LEU-TRP media.
To use the YRG2-ΔF strain for screening purposes, a lawn of the YRG2-ΔF strain is spread onto selective media. This media contains yeast nitrogen base and all amino acids except for histidine, leucine, and tryptophan. The media also contains 3-amino 1,2,4-triazole at a concentration of 1.5 mM. […]

[2] = tested on: YRG2-WT strain; assay: Colony formation on SC-HIS-LEU-TRP media, YRG2-WT strain; type: cell-based, yeast; conditions: 1.5 mM in SC-HIS-LEU-TRP media; 30° C.; three days
Method: as §1

[3] = molecular target: T1, NBD1 ΔF508 domain of CFTR (dimerization) (Homo sapiens, UniProt P13569, DEL508-508/V470M); assay: Yeast two-hybrid growth assay with YRG2-ΔF strain on selective media lacking histidine; type: cell-based; conditions: 1.5M glycerol in growth media; 37° C.; media lacking leucine, tryptophan and histidine
T1 construct: expressed in transfected cells; host or cells: Saccharomyces cerevisiae strain YRG2 (Stratagene), transformed with pBDPN-ΔF and pADPN-ΔF = YRG2-ΔF
T1 sequence (P13569 with tags, fused parts or gaps V470M/DEL508-508): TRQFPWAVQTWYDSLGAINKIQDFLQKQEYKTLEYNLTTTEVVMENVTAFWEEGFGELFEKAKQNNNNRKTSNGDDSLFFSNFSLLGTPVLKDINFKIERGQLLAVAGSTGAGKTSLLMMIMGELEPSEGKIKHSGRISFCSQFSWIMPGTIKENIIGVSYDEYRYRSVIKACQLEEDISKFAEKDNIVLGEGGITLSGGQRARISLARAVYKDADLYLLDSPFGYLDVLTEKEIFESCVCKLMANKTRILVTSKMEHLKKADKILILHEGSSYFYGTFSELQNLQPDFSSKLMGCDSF
T1 sequence (P13569 with tags, fused parts or gaps V470M/DEL508-508): as above
Method: FIGS. 2A-2C show growth of two-hybrid yeast strains containing wildtype and mutant CFTR NBD1. The yeast strain YRG2 was transformed with pADGAL4 and pBDGAL4 constructs containing wildtype and mutant CFTR NBD1 as indicated. Each strain was grown in synthetic complete media lacking leucine and tryptophan, and equal aliquots of cells in 10-fold dilutions were spotted to synthetic complete media lacking leucine, tryptophan and histidine. Dilutions for each strain proceed from right to left, with the spots from most dilute cultures corresponding to the tapered end of the triangle. Plates were incubated at either 21° C. (FIG. 2A) or 37° C. (FIG. 2B) (for 3 days and 5 days respectively). Glycerol was added to the media to a final concentration of 1.5 M as indicated (1.5 M Glyc) (FIG. 2C).
The present invention concerns methods for screening chemical compounds for drug candidates with activity to correct the dimerization defect associated with mutant CFTR NBD1 containing the ΔF508 mutation. […] If the sample tested is a pure compound, the compound can then be analyzed further in secondary assays to determine its activity to restore CFTRΔF508 cAMP-stimulated chloride channel activity in mammalian cells expressing CFTRΔF508 (Sheppard et al., 1994). […]

Row | rescue of temperature-sensitive dimerization of mutant NBD1 containing ΔF508 [3] | Compound | colony formation of YRG2-ΔF strain [1] | colony formation of YRG2-WT strain [2]
1 | – | Nc1nc[nH]n1 [3-amino-1,2,4-triazole] | prevents colony formation | does not inhibit colony formation
2 | rescued | OCC(O)CO [glycerol] | – | –
